Data: patent US8895761B2, “4-phenylpyrane-3,5-diones, 4-phenylthiopyrane-3,5-diones and 2-phenylcyclohexane-1,3,5-triones as herbicides” (Syngenta Limited, priority 2007, dated 2014)

Columns and labels:
Type in all cases: in vivo
[1] = test system: Echinochloa crus-galli (ECHCG); assay: Post-emergence herbicidal glasshouse test, Echinochloa crus-galli; details: Echinochloa crus-galli, 312 h, rate 250 g/ha, evaluated after 13 days, scale 100 = total damage to plant, 0 = no damage
Method: (§1) Seeds of a variety of test species were sown in standard soil in pots. After cultivation for one day (pre-emergence) or after 8 days cultivation (post-emergence) under controlled conditions in a glasshouse (at 24/16° C., day/night; 14 hours light; 65% humidity), the plants were sprayed with an aqueous spray solution derived from the formulation of the technical active ingredient in acetone/water (50:50) solution containing 0.5% Tween 20 (polyoxyethelyene sorbitan monolaurate, CAS RN 9005-64-5). The test plants were then grown in a glasshouse under controlled conditions in a glasshouse (at 24/16° C., day/night; 14 hours light; 65% humidity) and watered twice daily. After 13 days for pre and post-emergence, the test was evaluated ([…] to plant; 0=no damage to plant).
(§2) Setaria faberi (SETFA), Lolium perenne (LOLPE), Alopecurus myosuroides (ALOMY), Echinochloa crus-galli (ECHCG) and Avena fatua (AVEFA).

[2] = test system: Alopecurus myosuroides (ALOMY); assay: Post-emergence herbicidal glasshouse test, Alopecurus myosuroides; details: Alopecurus myosuroides, 312 h, rate 250 g/ha, evaluated after 13 days, scale 100 = total damage to plant, 0 = no damage
Method: as §1, §2

[3] = test system: Alopecurus myosuroides (ALOMY); assay: Pre-emergence herbicidal glasshouse test, Alopecurus myosuroides; details: Alopecurus myosuroides, 312 h, rate 250 g/ha, evaluated after 13 days, scale 100 = total damage to plant, 0 = no damage
Method: as §1, §2

[4] = test system: Echinochloa crus-galli (ECHCG); assay: Pre-emergence herbicidal glasshouse test, Echinochloa crus-galli; details: Echinochloa crus-galli, 312 h, rate 250 g/ha, evaluated after 13 days, scale 100 = total damage to plant, 0 = no damage
Method: as §1, §2

[5] = test system: Avena fatua (AVEFA); assay: Post-emergence herbicidal glasshouse test, Avena fatua; details: Avena fatua, 312 h, rate 250 g/ha, evaluated after 13 days, scale 100 = total damage to plant, 0 = no damage
Method: as §1, §2

[6] = test system: Lolium perenne (LOLPE); assay: Pre-emergence herbicidal glasshouse test, Lolium perenne; details: 312 h, rate 250 g/ha, evaluated after 13 days, scale 100 = total damage to plant, 0 = no damage
Method: as §1, §2

[7] = test system: Lolium perenne (LOLPE); assay: Post-emergence herbicidal glasshouse test, Lolium perenne; details: 312 h, rate 250 g/ha, evaluated after 13 days, scale 100 = total damage to plant, 0 = no damage
Method: as §1, §2

[8] = test system: Avena fatua (AVEFA); assay: Pre-emergence herbicidal glasshouse test, Avena fatua; details: Avena fatua, 312 h, rate 250 g/ha, evaluated after 13 days, scale 100 = total damage to plant, 0 = no damage
Method: as §1, §2

Structure (SMILES)	pest or weed control at 250 g/ha [1]	pest or weed control at 250 g/ha [2]	pest or weed control at 250 g/ha [3]	pest or weed control at 250 g/ha [4]	pest or weed control at 250 g/ha [5]	pest or weed control at 250 g/ha [6]	pest or weed control at 250 g/ha [7]	pest or weed control at 250 g/ha [8]
CCc1cc(-c2ccc(Cl)cc2F)ccc1C1=C(O)[C@@]2(C)CC[C@H](O2)C1=O (racemic) [Compound A-14]	100%	80%	50%	80%	100%	80%	100%	50%
Cc1cc(-c2ccc(Cl)cc2F)cc(C)c1C1=C(O)[C@@]2(C)CC[C@H](O2)C1=O (racemic) [Compound A-53]	100%	90%	50%	100%	80%	90%	100%	60%
CCc1cc(-c2ccc(Cl)cc2Cl)ccc1C1=C(O)[C@@]2(C)CC[C@H](O2)C1=O [Compound A-13]	100%	70%	0%	50%	80%	20%	100%	0%
CCc1cc(-c2ccc(Cl)cc2)ccc1C1=C(O)C(C)(C)OC(C)(C)C1=O [Compound A-35]	100%	100%	50%	90%	80%	80%	90%	40%
CCc1cc(-c2ccc(Cl)cc2Cl)ccc1C1=C(O)C(C)(C)OC(C)(C)C1=O [Compound A-36]	60%	30%	0%	0%	20%	0%	40%	0%
CCc1cc(-c2ccc(Cl)c(Cl)c2)ccc1C1=C(O)C(C)(C)OC(C)(C)C1=O [Compound A-38]	80%	80%	0%	50%	50%	70%	70%	0%
CCc1cc(-c2ccc(Cl)s2)ccc1C1=C(O)C(C)(C)OC(C)(C)C1=O [Compound A-41]	70%	50%	0%	0%	0%	20%	60%	30%
CCc1cc(-c2ccc(Cl)c(F)c2)ccc1C1=C(O)C(C)(C)OC(C)(C)C1=O [Compound A-42]	100%	90%	10%	90%	80%	90%	90%	20%
CCc1cc(-c2ccc(Cl)cn2)ccc1C1=C(O)C(C)(C)OC(C)(C)C1=O [Compound A-43]	100%	80%	20%	70%	70%	50%	80%	30%
CCc1cc(-c2ccc(Cl)c(F)c2Cl)ccc1C1=C(O)C(C)(C)OC(C)(C)C1=O [Compound A-46]	80%	50%	0%	30%	0%	40%	40%	0%
